Measured values: patent publication US11708374B2, “Preparation of condensed triazepine derivatives and their use as BET inhibitors” (DYBLY AG, priority 2018, dated 2023)
Like-named read-outs stand apart in the source and are kept apart here.

Legend:
BRD4 = BRD4 (Homo sapiens, UniProt O60885); assay: AlphaScreen assay, Bromodomain 4 inhibition; type: binding
Description: AlphaScreen assays were performed as described by Philpott et al Mol Biosyst. […] YSGRGK(Ac)GGK(Ac)GLGK(Ac)GGAK(Ac)RHRK (Biotin) peptide was used in the assays. Buffer conditions used in all experiments were 25 mM HEPES, pH 7.4, 100 mM NaCl, 0.1% BSA, supplemented with 0.05% CHAPS.

collagen1A1 = assay: Anti-fibrotic effects: collagen1A1 production by LX2 cells treated with TGFbeta; type: cell-based; details: 500 nM
Source text: (§1) Methods of culturing LX2 cells and measurements of Collagen1A1 and alphaActin1 mRNA contents are provided in Ding et al, Proc Natl Acad Sci USA 2015, 112:15713-15718

alphaActin1 = assay: Anti-fibrotic effects: alphaActin1 production by LX2 cells treated with TGFbeta; type: cell-based; details: 500 nM
Source text: as §1

[1] = tested on: Interleukin 1beta (IL-1beta), Interleukin 6 (IL6) and TNF-alpha; assay: LPS-stimulated cytokine production in whole human blood; type: cell-based; details: 10 ng/ml LPS; for inhibition at 0.6 µM: 600 nM, 24 h, read-out: Inhibition of inflammatory cytokine production
Description: BET inhibitors were added (from 10 mM DMSO solutions) to whole human blood (anti-coagulated with heparin) during incubation for 24 h at 37° C. in the presence of 10 ng/ml Lipopolysaccharide (LPS). Final DMSO concentration was below 0.01%. Cytokines production with 0.01% DMSO alone in the absence of LPS were below detection level.

KG1 = assay: Inhibition of proliferation (Alamar Blue cell viability), KG1; type: cell-based; details: Homo sapiens, KG-1; AML, KG1, 72 h; read-out: Inhibition of cell growth, IC50
Description: (§2) A semi-log dilution was performed in 100% DMSO. Cells were cultured in DMEM containing 10% FCS and Penicillin/Streptomycin. For the assays, cells were seeded in 150 μL medium on a 96-well cell culture plate and incubated at 37° C. overnight before the compound was added. […] A day after cell seeding, 10 μL of prediluted compound was added to the cells (1:16 dilution). Treatment of cells with 0.1% DMSO and Staurosporine (1.0E-05 M) served as High control (100% viability) and Low control (0% viability), respectively
(§3) A day after cell seeding, the test compound was added to the medium to reach the final concentration and incubated for 72 h at 37° C. at 5% CO2 in air dependent on the medium. Subsequently 15 μL Alamar Blue reagent was added and fluorescence at 590 nm was measured after 3-5 h incubation at 37° C., 5% CO2 using a fluorometer.
(§4) Raw data were converted into percent cell viability relative to the high control (0.1% DMSO) and low control (1E-05M Staurosporine), which were set to 100% and 0%, respectively.

KMS-12-BM = assay: Inhibition of proliferation (Alamar Blue cell viability), KMS-12-BM; type: cell-based; details: Homo sapiens, Multiple myeloma, 72 h, read-out: Inhibition of cell growth, IC50
Description: as §2, §3, §4

LP-1 = assay: Inhibition of proliferation (Alamar Blue cell viability), LP-1; type: cell-based; details: Homo sapiens; Multiple myeloma, LP-1, 72 h; read-out: Inhibition of cell growth, IC50
Description: as §2, §3, §4

CCL2 = assay: Production of the chemokine CCL2 by cultured human astrocytes (CCL2 mRNA); type: cell-based; details: 250 nM, 24 h
Description: CCL2 mRNA content of control astrocytes, astrocytes incubated with 10 ug/ml Tumor Necrosis Factor alpha (TNFalpha) and 10 ug/ml Interferon alpha (IFNalpha) (T/I), astrocytes treated with 250 nM of “Compound 38” (referred to as “C4” in FIG. 2) and astrocytes which are pretreated with “Compound 38” (C4) for 1 hour before stimulation with T/I. Incubation period 24 h. Details on astrocyte culture and quantification of CCL2 mRNA are provided in Mizee et al. Acta Neuropathol (2014) 128:691-703. […] Co-addition of 250 nM of “Compound 38” decreased CCL2 production by 80% both in the absence and presence of TNFalpha/Interferon as shown in FIG. 2.

HL-60 = assay: Inhibition of proliferation (Alamar Blue cell viability), HL-60; type: cell-based; details: Homo sapiens; AML, HL-60, 72 h; read-out: Inhibition of cell growth, IC50
Description: as §2, §3, §4

OPM-2 = assay: Inhibition of proliferation (Alamar Blue cell viability), OPM-2; type: cell-based; details: Homo sapiens; Multiple myeloma, OPM-2, 72 h; read-out: Inhibition of cell growth, IC50
Description: as §2, §3, §4

[2] = AlphaScreen, acetylated histone peptide, read-out: Potency as inhibitor of BRD4, IC-50

In the case of `Cc1sc2c(c1C)C(c1ccc(Cl)cc1)=NN(CC(=O)O)c1nnc(C)n1-2.Cl` [Compound 42, 2-(4-(4-chlorophenyl)-2,3,9-trimethyl-6H-thieno[2,3-e][1,2,4]triazolo[3,4-c][1,2,4]triazepin-6-yl)acetic acid hydrochloride], the IC50 (BRD4; [2]) is reported as 290 nM, the “Reduction of collagen1A1 production” value (collagen1A1) is reported as “less inhibition” and the “Reduction of alphaActin1 production” value (alphaActin1) is reported as “less inhibition”.

With `Cc1sc2c(c1C)C(c1ccc(Cl)cc1)=N[C@@H](CC(=O)OC(C)(C)C)c1nnc(C)n1-2` [(+)JQ1, reference compound] the “Reduction of collagen1A1 production” value (collagen1A1) was “reduced to an equal extent”, the inhibition at 0.6 µM [1] was roughly 30% and the “Reduction of alphaActin1 production” value (alphaActin1) was “reduced to an equal extent”.

In the case of `CCOC(=O)CN1N=C(c2ccc(Cl)cc2)c2c(sc(C)c2C)-n2c(C)nnc21` [Compound 41, Ethyl 2-(4-(4-chlorophenyl)-2,3,9-trimethyl-6H-thieno[2,3-e][1,2,4]triazolo[3,4-c][1,2,4]triazepin-6-yl)acetate], the IC50 (BRD4; [2]) is reported as 11 nM, the “Reduction of collagen1A1 production” value (collagen1A1) is reported as “reduced to an equal extent” and the IC50 ([1]; 24 h at 37° C., read-out: Inhibition of production of IL-1beta, IL6 and TNF-alpha, IC50s) is reported as 6 to 60 nM. For the same molecule, the inhibition at 0.6 µM [1] was greater than 80% and the “Reduction of alphaActin1 production” value (alphaActin1) was “reduced to an equal extent”.

`Cc1sc2c(c1C)C(c1ccc(Cl)cc1)=NN(CC(=O)OC(C)(C)C)c1nnc(C)n1-2` [Compound 43, tert-butyl 2-(4-(4-chlorophenyl)-2,3,9-trimethyl-6H-thieno[2,3-e][1,2,4]triazolo[3,4-c][1,2,4]triazepin-6-yl)acetate] was tested, and the IC50 (BRD4; [2]) was 100 nM, the “Reduction of collagen1A1 production” value (collagen1A1) was “less inhibition” and the “Reduction of alphaActin1 production” value (alphaActin1) was “less inhibition”.

With `Cc1sc2c(c1C)C(c1ccc(Cl)cc1)=NN(C)c1nnc(C)n1-2` [Compound 38, 4-(4-chlorophenyl)-2,3,6,9-tetramethyl-6H-thieno[2,3-e][1,2,4]triazolo[3,4-c][1,2,4]triazepine] the IC50 (BRD4) was 150 nM, the IC50 (KG1) was 810 nM and the IC50 (KMS-12-BM) was 270 nM. For the same molecule, the IC50 (LP-1) was 360 nM, the “Decrease of CCL2 production” value (CCL2; absence of TNFalpha/Interferon) was 80% and the “Decrease of CCL2 production” value (CCL2; presence of TNFalpha/Interferon) was 80%. For the same molecule, the IC50 (HL-60) was 810 nM and the IC50 (OPM-2) was 260 nM.
